Calls of active or inactive are those of the source. The calls are words filed in the database; no cut-off is given here.

The source of these data is ChEMBL document CHEMBL6182861, “Structural modification of heptamethine indocyanine dyes with improved aqueous solubility and stability for photothermal therapy” (Eur J Med Chem, 2025).

The nature of data set [1]: Toxicity in ICR mouse bearing mouse H22 cells assessed as damage in kidney at 2.5 mg/kg, iv pretreated for 4 hrs followed by exposure to laser irradiation of 808 nm for 5 mins on every 2 days treated for 15 days by H and E staining based analysis. It is filed as organism-based. As to conditions: in vivo, 360 h, time 15 day.
The test system of data set [2] is 4T1. In words: Antitumor activity against mouse 4T1 cells implanted in female BALB/c mouse assessed as decrease in tumor size at 2.5 mg/kg, iv pretreated for 4 hrs followed by exposure to laser irradiation of 808 nm for 5 mins on every 2 days treated for 15 days. In kind it is functional, organism-based. Particulars: time 15.0 day.
Data set [3] concerns 4T1. In words: Antitumor activity against mouse 4T1 cells implanted in female BALB/c mouse assessed as necrotic tissue at 2.5 mg/kg, iv pretreated for 4 hrs followed by exposure to laser irradiation of 808 nm for 5 mins on every 2 days treated for 15 days by H and E staining based analysis. It is filed as functional, organism-based. Particulars: time 15.0 day.
The nature of data set [4]: Toxicity in female BALB/c mouse bearing mouse 4T1 cells assessed as body weight at 2.5 mg/kg, iv pretreated for 4 hrs followed by exposure to laser irradiation of 808 nm for 5 mins on every 2 days treated for 15 days. In kind it is organism-based. Particulars: in vivo, 360 h, time 15 day.
Data set [5] in a line: Biodistribution in liver of female BALB/c mouse bearing mouse 4T1 cells at 2.5 mg/kg, iv measured up to 12 hrs by fluorescence imaging analysis. In kind it is ADME, organism-based. As to conditions: in vivo.
The test system of a further data set is Mitochondrial membrane. In words: Inhibition of mitochondrial membrane potential in human HepG2 cells assessed as green fluorescence at 3.12 uM preincubated for 4 hrs followed by exposure to laser irradiation of 808 nm for 2 mins and subsequent incubation for 20 hrs by JC-1 dye based analysis. In kind it is cell membranes. Particulars: time 1442.0 min.
The nature of data set [6]: Toxicity in female BALB/c mouse bearing mouse 4T1 cells assessed as damage in heart at 2.5 mg/kg, iv pretreated for 4 hrs followed by exposure to laser irradiation of 808 nm for 5 mins on every 2 days treated for 15 days by H and E staining based analysis. It is filed as organism-based. As to conditions: in vivo, 360 h, time 15 day.
The nature of data set [7]: Toxicity in ICR mouse bearing mouse H22 cells assessed as damage in liver at 2.5 mg/kg, iv pretreated for 4 hrs followed by exposure to laser irradiation of 808 nm for 5 mins on every 2 days treated for 15 days by H and E staining based analysis. It is filed as organism-based. As to conditions: in vivo, 360 h, time 15 day.
The subject of data set [8] is 4T1. Kind of data set: Antitumor activity against mouse 4T1 cells implanted in female BALB/c mouse assessed as cellular damage at 2.5 mg/kg, iv pretreated for 4 hrs followed by exposure to laser irradiation of 808 nm for 5 mins on every 2 days treated for 15 days by H and E staining based analysis. Particulars: time 15.0 day. In kind it is functional, organism-based.

The nature of data set [9]: Toxicity in female BALB/c mouse bearing mouse 4T1 cells assessed as damage in liver at 2.5 mg/kg, iv pretreated for 4 hrs followed by exposure to laser irradiation of 808 nm for 5 mins on every 2 days treated for 15 days by H and E staining based analysis. It is filed as organism-based. As to conditions: in vivo, 360 h, time 15 day.
A short description of data set [10]: Drug accumulation in tumor of female BALB/c mouse bearing mouse 4T1 cells at 2.5 mg/kg, iv measured up to 12 hrs by fluorescence imaging analysis. Particulars: in vivo. It is filed as ADME, organism-based, Neoplasm.
Another data set relates to H22. In words: Antitumor activity against mouse H22 cells implanted in female ICR mouse assessed as tumor growth inhibition at 2.5 mg/kg, iv pretreated for 4 hrs followed by exposure to laser irradiation of 808 nm for 5 mins on every 2 days treated for 15 days. Particulars: time 15.0 day. In kind it is functional, organism-based.
Data set [11] is described as follows: Toxicity in ICR mouse bearing mouse H22 cells assessed as damage in heart at 2.5 mg/kg, iv pretreated for 4 hrs followed by exposure to laser irradiation of 808 nm for 5 mins on every 2 days treated for 15 days by H and E staining based analysis. It is filed as organism-based. As to conditions: in vivo, 360 h, time 15 day.
Data set [12] deals with 4T1. In words: Antitumor activity against mouse 4T1 cells implanted in female BALB/c mouse assessed as cellular damage at 2.5 mg/kg, iv treated on every 2 days treated for 15 days by H and E staining based analysis. In kind it is functional, organism-based. Particulars: time 15.0 day.
Data set [13] concerns 4T1. In words: Photothermal cytotoxicity against mouse 4T1 cells assessed as survival rate at 3.12 uM preincubated for 4 hrs followed by exposure to laser irradiation of 808 nm for 2 mins and subsequent incubation for 20 hrs by MTT assay relative to control. It is filed as functional. Particulars: 4T1, light or radiation study, 24.03 h, time 1442 min, read-out: Survival.
The test system of the next data set is Mus musculus. In words: Photothermal effect in female BALB/c mouse bearing mouse 4T1 cells at approximately 50 degreeC at 2.5 mg/kg, iv pretreated for 4 hrs followed by exposure to laser irradiation of 808 nm for 5 mins. In kind it is functional, organism-based. As to conditions: time 245.0 min.
Data set [14] is described as follows: Toxicity in female BALB/c mouse bearing mouse 4T1 cells assessed as damage in spleen at 2.5 mg/kg, iv pretreated for 4 hrs followed by exposure to laser irradiation of 808 nm for 5 mins on every 2 days treated for 15 days by H and E staining based analysis. It is filed as organism-based. Particulars: in vivo, 360 h, time 15 day.
Data set [15] can be described thus: Drug excretion in female BALB/c mouse bearing mouse 4T1 cells at 1.8 mg/kg, iv measured up to 12 hrs by fluorescence imaging analysis. It is filed as ADME, organism-based. Particulars: in vivo.
Data set [16] relates to 4T1. In words: Antitumor activity against mouse 4T1 cells implanted in female BALB/c mouse assessed as cellular damage at 1.8 mg/kg, iv treated on every 2 days treated for 15 days by H and E staining based analysis. It is filed as functional, organism-based. Particulars: time 15.0 day.
Data set [17] can be described thus: Toxicity in ICR mouse bearing mouse H22 cells assessed as damage in heart at 1.8 mg/kg, iv pretreated for 4 hrs followed by exposure to laser irradiation of 808 nm for 5 mins on every 2 days treated for 15 days by H and E staining based analysis. It is filed as organism-based. Particulars: in vivo, 360 h, time 15 day.
Data set [18] deals with 4T1. Kind of data set: Photothermal cytotoxicity against mouse 4T1 cells up to 25 uM preincubated for 4 hrs followed by exposure to laser irradiation of 808 nm for 2 mins and subsequent incubation for 20 hrs by MTT assay. It is filed as functional, cell-based.
Data set [19] is described as follows: Toxicity in female BALB/c mouse bearing mouse 4T1 cells assessed as damage in lung at 1.8 mg/kg, iv pretreated for 4 hrs followed by exposure to laser irradiation of 808 nm for 5 mins on every 2 days treated for 15 days by H and E staining based analysis. It is filed as organism-based. Particulars: in vivo, 360 h, time 15 day.
Data set [20] deals with 4T1. Kind of data set: Antitumor activity against mouse 4T1 cells implanted in female BALB/c mouse assessed as decrease in tumor volume at 1.8 mg/kg, iv treated for 4 hrs on every 2 days treated for 15 days. It is filed as functional, organism-based. Particulars: time 15.0 day.
The nature of data set [21]: Drug accumulation in tumor of female BALB/c mouse bearing mouse 4T1 cells at 1.8 mg/kg, iv measured up to 12 hrs by fluorescence imaging analysis. As to conditions: in vivo. It is filed as ADME, organism-based, Neoplasm.
Data set [22] is described as follows: Toxicity in female BALB/c mouse bearing mouse 4T1 cells assessed as damage in kidney at 1.8 mg/kg, iv pretreated for 4 hrs followed by exposure to laser irradiation of 808 nm for 5 mins on every 2 days treated for 15 days by H and E staining based analysis. As to conditions: in vivo, 360 h, time 15 day. In kind it is organism-based.
Data set [23] can be described thus: Toxicity in female BALB/c mouse bearing mouse 4T1 cells assessed as damage in heart at 1.8 mg/kg, iv pretreated for 4 hrs followed by exposure to laser irradiation of 808 nm for 5 mins on every 2 days treated for 15 days by H and E staining based analysis. It is filed as organism-based. As to conditions: in vivo, 360 h, time 15 day.
Data set [24] in a line: Toxicity in female BALB/c mouse bearing mouse 4T1 cells assessed as body weight at 1.8 mg/kg, iv pretreated for 4 hrs followed by exposure to laser irradiation of 808 nm for 5 mins on every 2 days treated for 15 days. It is filed as organism-based. Particulars: in vivo, 360 h, time 15 day.
The nature of data set [25]: Drug accumulation in tumor of female BALB/c mouse bearing mouse 4T1 cells assessed as increase in fluorescence intensity at 1.8 mg/kg, iv measured after 4 hrs by fluorescence imaging analysis. It is filed as ADME, organism-based, Neoplasm. Particulars: in vivo.

As to `COCCOCCOCCN1/C(=C/C=C/C(=C/C=C/C2=[N+](CCOCCOCCOC)c3ccccc3C2(C)C)C(=O)OC)C(C)(C)c2ccccc21.[I-]`, the Activity entry in data set [1] is listed as “Non-toxic”; in data set [4], 18 g; in data set [6], “Non-toxic”; in data set [7], “Non-toxic”; in data set [9] it was “Non-toxic”; in data set [11] it was “Non-toxic”. In addition, the Activity entry was “Not active; Minor Cell Damage Was Observed” in the data set with 4T1 [12], “Active; Compound Exhibited Superior Effect Among Tested Compounds” in the data set with Mus musculus and “Non-toxic” in [14]. The result in the data set on 4T1 [2], in the data set on 4T1 [3] and in the data set on 4T1 [8] was Active. The Drug uptake result in data set [5] and in [10] was “Active” in each case. The inhibition result with Mitochondrial membrane and in the data set with H22 was “Active” each time. In addition, in the data set on 4T1 [13], the viability at 3.12 µM worked out at 36%.
As for `COC(=O)C(=C\C=C\C1=[N+](C)c2ccccc2C1(C)C)/C=C/C=C1/N(C)c2ccccc2C1(C)C.[I-]`, the Drug excretion result in data set [15] is recorded as “Active”. The Activity result is “Not active; Minor Cell Damage Was Observed” in the data set on 4T1 [16]; “Non-toxic” in data set [17]; “Not active; Limited Photo-Thermal Toxicity Was Observed” in the data set on 4T1 [18]; “Non-toxic” in data set [19]; “Non-toxic” in data set [22]; “Non-toxic” in data set [23]. Besides, the Activity in data set [24] is on record as 18 g. Besides, the result in the data set with 4T1 [20] was inactive. The Drug uptake entry in data set [21] and in data set [25] was “Active” throughout.
